Data set [1] in a line: HPLC kinetics assay: condensation of model amines with benzyloxyacetaldehyde. The conditions noted are these: 50 μM amine and aldehyde, room temperature, 2 h, above pH 6. The method, then: Experimental Protocol for HPLC Kinetics Assay: Reaction mixtures contained amine 4, 6, 7, or 8 (50 μM), benzyloxyacetaldehyde (50 μM), bromocresol green (10 μM), and buffer (10 mM) in a 120 μL aqueous solution containing 6.7% MeCN, which was present to solubilize the stock solution (1 mM) of benzyloxyacetaldehyde. After 2 h at room temperature, a 100 μL aliquot was analyzed by HPLC, employing a gradient of 10 to 100% acetonitrile in water over 18 min.
As described above, buffered solutions containing 50 μM amine and aldehyde were incubated at room temperature for 2 h prior to analysis by HPLC.

The conditions of data set [2]: basic moiety of the compound (trialkylhydrazine / O-alkylaminooxy); cited from earlier work.

On to `CNN(C)Cc1cc2ccccc2n1CCC(=O)O` [Compound 4, Piperidinium 3-(2-((1,2-dimethylhydrazinyl)methyl)-1H-indol-1-yl)propanoate], for which the “% conversion to product” value in data set [1] is “higher % conversion to product than the other amine nucleophiles”. Besides, the pKa – broadly, the negative logarithm of the acid dissociation constant – in data set [2] is about 6.56.

These data come from US11426465B2, “Hydrazinyl-indole compounds and methods for producing a conjugate” (Redwood Bioscience, Inc., priority 2012, dated 2022).
